Article PMC9563204, “Mass Spectrometry and Machine Learning Reveal Determinants of Client Recognition by Antiamyloid Chaperones” (Molecular & Cellular Proteomics : MCP, 2022)

Molecular target: TTR (transthyretin) (Homo sapiens, UniProt P02766)
Test: native MS of Aβ([…]) binding to TTR with and without tafamidis
Conditions: TTR tetramer coincubated with Aβ(12–28) and tafamidis, overnight, room temperature; indirect read-out (tetramer stabilization)

O=C(O)c1ccc2nc(-c3cc(Cl)cc(Cl)c3)oc2c1 [tafamidis]
native MS of Aβ(12-28) binding to TTR with and without tafamidis: In the presence of tafamidis, we observed a clear decrease in Aβ binding to TTR
